The values that follow come from paper PMC11705763, “Tumor-associated antigen prediction using a single-sample gene expression state inference algorithm” (Cell Reports Methods, 2024).

Test [1] deals with CD8+ T cell cultures / PBMCs from healthy donors. Briefly: IFN-gamma ELISpot assay.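 As to Donor2 value: Spot-forming units per 100000 cells.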 The test is classed as cell-based, human. Also noted: Donor1_value / Donor3_value / Donor4_value: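 Spot-forming units per 100000 cells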. The settings on record: IFN-gamma ELISpot result; for Donor1_value: healthy donor 1; for Donor2_value: healthy donor 2; for Donor3_value: healthy donor 3; for Donor4_value: healthy donor 4. From the text:
We experimentally assessed the binding affinity of the 38 peptides through a competitive peptide binding assay (STAR Methods). […] Subsequently, we investigated the immunogenicity of these peptides using an interferon (IFN)-gamma ELISpot assay (STAR Methods). […] These peptides represent promising candidates for further investigation as potential immunotherapy targets. Peripheral blood mononuclear cells (PBMCs) from healthy donors were isolated at Zhongshan Hospital, Fudan University using Lymphoprep (07851, Stemcell) and cultured with ImmunoCult-XF T cell Expansion Medium (10981, Stemcell) supplemented with human recombinant IL-2 (78036, Stemcell). ImmunoCult Human CD3/CD28 T cell Activator (10971, Stemcell) was added to the cell suspension, which was then incubated for 3 days. Subsequent expansion of the cell suspension was carried out every two days as per manufacturer's instructions. The entire process was approved by the Institutional Review Board of Zhongshan Hospital, Fudan University (B2024-412). ELISPOT plates (2110003, […]) were pretreated with PBS before dispensing cell suspensions (nearly 1×10^5 cells) with synthesized peptide (10 μg/mL) into each well. After incubation at 37°C in a CO2 incubator for 20 h, plates were washed and incubated with anti-human IFN-γ followed by Streptavidin-HRP. Staining of Streptavidin-HRP was performed using AEC solution, and the reaction was stopped by rinsing with cold tap water. ELISPOT plates were scanned and counted using an ImmunoSpot plate reader and associated software from Cellular Technologies, Ltd.

For a further test, the target named is HLA-A02:01 (Homo sapiens, UniProt P04439, D140Y/D185E/D98H/E176V/E277Q/G131W/G231S/I119V/I121R/I166T/I218V/L300P/L318F/N151K/N90K/P208A/P217A/Q86G/Q94H/R138H/R169H/T345S). Description: Peptide-MHC tetramer exchange assay (competitive peptide binding, QuickSwitch Quant HLA-A02:01 tetramer). The settings on record: percentage of replacement of the exchangeable peptide by the test peptide.

For KMKVLEFLAKV, in test [1], the Donor1_value turned out to be 0, the Donor2_value is on record as 2, the Donor3_value is reported as 18 and the Donor4_value was 0. The Q1_Replacement_Percentage on HLA-A02:01 amounted to 42.8%.
Take FLTSGEDAV: in test [1], the Donor1_value is 494, the Donor2_value amounted to 21, the Donor3_value is given as 0 and the Donor4_value amounted to 0. Besides, on HLA-A02:01, the Q1_Replacement_Percentage turned out to be 98.3%.
RKLLMPLLGV: in test [1], the Donor1_value came out at 0, the Donor2_value is 0, the Donor3_value turned out to be 16 and the Donor4_value is 0. Further, the Q1_Replacement_Percentage on HLA-A02:01 came to 22.9%.
In test [1], GLLMPLLGVI registered a Donor1_value of 631, a Donor2_value of 10, a Donor3_value of 3 and a Donor4_value of 0. At HLA-A02:01, this sequence yielded a Q1_Replacement_Percentage of 91.4%.
In test [1], FLAKLNNTV registered a Donor1_value of 2, a Donor2_value of 56, a Donor3_value of 18 and a Donor4_value of 0. Also, the Q1_Replacement_Percentage at HLA-A02:01 came out at 88.1%.
The corresponding values for AMLKNTVPI are 0, 0, 18, 0 and 89.9%.
Taken in the same sequence, the figures for GLAEYLFDKLTL were 584, 0, 9, 0 and 89.8%.
Consider FLYEVFAQL, for which, in test [1], the Donor1_value is on record as 654, the Donor2_value worked out at 7, the Donor3_value was determined as 4 and the Donor4_value was found to be 0. Also, at HLA-A02:01, the Q1_Replacement_Percentage is 92.7%.
The corresponding values for FLLLVDAAVQ are 0, 31, 16, 0 and 29.3%.
In test [1], VLLPASLFI yielded a Donor1_value of 634, a Donor2_value of 26, a Donor3_value of 0 and a Donor4_value of 0. Also, the Q1_Replacement_Percentage on HLA-A02:01 was 94.8%.
In test [1], LVLGTLEEV gave a Donor1_value of 666, a Donor2_value of 17, a Donor3_value of 15 and a Donor4_value of 11. Also, the Q1_Replacement_Percentage on HLA-A02:01 worked out at 85.1%.
Regarding SLLDLYQLA, in test [1], the Donor1_value came out at 0, the Donor2_value was determined as 1, the Donor3_value turned out to be 0 and the Donor4_value was 0. This sequence also registered a Q1_Replacement_Percentage at HLA-A02:01 of 91.5%.
In test [1], FLSTLTTFI returned a Donor1_value of 0, a Donor2_value of 41, a Donor3_value of 15 and a Donor4_value of 0. The Q1_Replacement_Percentage at HLA-A02:01 worked out at 89.1%.
For YVKVLEYVIKV, in test [1], the Donor1_value is recorded as 0, the Donor2_value worked out at 56, the Donor3_value was 17 and the Donor4_value is given as 0. The Q1_Replacement_Percentage at HLA-A02:01 came out at 14.7%.
As for YLHEQVKTI, in test [1], the Donor1_value was determined as 0, the Donor2_value is 59, the Donor3_value worked out at 24 and the Donor4_value is listed as 9. At HLA-A02:01, this sequence showed a Q1_Replacement_Percentage of 83.5%.
The corresponding values for LLMPLLGVI are 627, 0, 11, 48 and 96.3%.
The corresponding values for YMLWFLLRHV are 0, 0, 29, 0 and 32.4%.
Taken in the same sequence, the figures for FLNEACLFEI were 606, 0, 7, 10 and 92%.
Take GLLMPLLGVIFL: in test [1], the Donor1_value is on record as 4, the Donor2_value is recorded as 33, the Donor3_value is 8 and the Donor4_value stood at 0. The same sequence displayed a Q1_Replacement_Percentage at HLA-A02:01 of 78.9%.
In test [1], QILQDGQFLV displayed a Donor1_value of 451, a Donor2_value of 37, a Donor3_value of 0 and a Donor4_value of 17. In addition, on HLA-A02:01, the Q1_Replacement_Percentage is recorded as 94%.
Taken in the same sequence, the figures for KVADLVGFLL were 570, 0, 2, 0 and 84.3%.
In test [1], LLQISNWFI displayed a Donor1_value of 30, a Donor2_value of 0, a Donor3_value of 30 and a Donor4_value of 0. Also, the Q1_Replacement_Percentage at HLA-A02:01 worked out at 32.7%.
Turning to YTLDEKVAEL, in test [1], the Donor1_value is given as 640, the Donor2_value is 29, the Donor3_value was found to be 2 and the Donor4_value worked out at 0. Moreover, the Q1_Replacement_Percentage at HLA-A02:01 is 91.1%.
Taken in the same sequence, the figures for GLLMPLLGV were 521, 32, 1, 11 and 91.1%.
The corresponding values for KVLEFLAKL are 545, 58, 12, 0 and 88.2%.
Taken in the same sequence, the figures for FLWGPRAHSEV were 558, 0, 10, 18 and 90.4%.
ILFGISLREV: in test [1], the Donor1_value came out at 0, the Donor2_value was 24, the Donor3_value is reported as 20 and the Donor4_value was determined as 8. Further, the Q1_Replacement_Percentage on HLA-A02:01 is reported as 96.2%.
In test [1], LLASYNDDDIYL showed a Donor1_value of 426, a Donor2_value of 0, a Donor3_value of 3 and a Donor4_value of 8. At HLA-A02:01, this sequence showed a Q1_Replacement_Percentage of 98.2%.
Taken in the same sequence, the figures for LQILQDGQFLV were 0, 0, 32, 0 and 81.9%.
Taken in the same sequence, the figures for FLRFANYCRI were 0, 8, 8, 0 and 30%.
The corresponding values for RLELVFGL are 0, 0, 8, 0 and 23.4%.
In test [1], KLLMPLLGV came in with a Donor1_value of 384, a Donor2_value of 0, a Donor3_value of 0 and a Donor4_value of 13. The same sequence gave a Q1_Replacement_Percentage on HLA-A02:01 of 97.9%.
With VIWDVLSGI, in test [1], the Donor1_value is 678, the Donor2_value is listed as 0, the Donor3_value is reported as 0 and the Donor4_value was 1. This sequence also displayed a Q1_Replacement_Percentage on HLA-A02:01 of 95.5%.
For the sequence YRLADHVGCV, in test [1], the Donor1_value is 0, the Donor2_value is recorded as 30, the Donor3_value came to 9 and the Donor4_value amounted to 0. Besides, on HLA-A02:01, the Q1_Replacement_Percentage was 56.3%.
In test [1], LLFGLALIEV had a Donor1_value of 28, a Donor2_value of 42, a Donor3_value of 7 and a Donor4_value of 0.
Take YIYDILLPV: in test [1], the Donor1_value is reported as 17, the Donor2_value came to 54, the Donor3_value is given as 19 and the Donor4_value was 0. On HLA-A02:01, the Q1_Replacement_Percentage worked out at 88.9%.
The corresponding values for KVLEYVIKV are 0, 23, 19, 0 and 80.8%.
